For 14 molecules, IC50 results are on record in US20230365563A1, “QUINAZOLINE COMPOUND AND APPLICATION THEREOF” (SHANGHAI PHARMACEUTICALS HOLDING CO., LTD., priority 2020, published 2023).

SMILES strings stand for the structures. Where a name gives a salt, the structure may show the parent alone. Where only a bound is given, the exact number is not on record here.

The target in one assay is T1, KRAS_G12D and cRAF (Homo sapiens, UniProt P01116, G12D).
T1 construct: purchased
In words: Inhibition of KRAS_G12D/cRAF binding (Cisbio binding kit, 665/615 ratio), Effect Embodiment B. The following applies: read-out: GTP-KRAS-G12D:CRAF IC50. The essentials:
(§1)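 Compounds are tested over eleven threefold dilution steps in duplicate, with final DMSO at 1%.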

The next assay has as its target T2, KRAS_WT and SOS1 (Homo sapiens, UniProt P01116).
T2 construct: purchased
In words: Inhibition of KRAS_WT/SOS1 binding (Cisbio binding kit, 665/615 ratio), Effect Embodiment C. The following applies: read-out: GTP-KRAS-WT:SOS1 IC50. On the procedure: The inhibitory ability of small molecule compounds on the binding activity of KRAS_WT and SOS1 was examined by a drug screening system based on the combination of KRAS_WT and SOS1.
Similarly, the first dilution point of the compound to be tested was its storage solution, and the solution was 3-fold diluted, with 11+0 points of dilution. Echo was used to transfer 0.2 μL gradient diluted solution of the compounds into a 384-well plate, with 2 duplicated wells for each compound, and the final concentration of DMSO was 1%. The solution was centrifuged for 1 min at 1000 rpm/min.
IC50 of the compounds was fitted by Graphpad Prism 8 nonlinear regression equation: […]
The IC50 (half inhibitory concentration) of the compound was obtained by using the following nonlinear fitting formula: […]

In another assay the target is T3, KRAS-G12D and SOS1 (Homo sapiens, UniProt P01116, G12D).
T3 construct: purchased
The assay is described as follows: Inhibition of KRAS-G12D/SOS1 binding (Cisbio binding kit, 665/615 ratio), Effect Embodiment A. The following applies: read-out: GTP-KRAS-G12D:SOS1 IC50. The gist of the method: as §1

T3 sequence (P01116 1-188 isoform P01116-2 G12D): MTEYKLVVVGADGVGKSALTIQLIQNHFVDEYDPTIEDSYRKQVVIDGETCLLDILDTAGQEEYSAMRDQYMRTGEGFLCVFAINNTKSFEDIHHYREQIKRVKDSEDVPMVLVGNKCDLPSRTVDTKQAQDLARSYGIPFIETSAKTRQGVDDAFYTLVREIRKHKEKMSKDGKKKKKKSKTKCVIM
T1 sequence (P01116 1-188 isoform P01116-2 G12D): as above
T2 sequence (P01116 1-188 isoform P01116-2): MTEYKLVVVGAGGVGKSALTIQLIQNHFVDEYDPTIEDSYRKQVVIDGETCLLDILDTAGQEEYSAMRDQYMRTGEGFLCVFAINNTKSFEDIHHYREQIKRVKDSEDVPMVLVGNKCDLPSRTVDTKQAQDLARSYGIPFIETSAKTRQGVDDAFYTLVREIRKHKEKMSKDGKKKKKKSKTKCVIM

A word on the IC50: it is the point on the concentration scale where inhibition reaches its midpoint. Take `CN(C)CCCOc1nc(N2C[C@H]3CC[C@@H](C2)N3)c2cnc(-c3cc(O)cc4ccccc34)c(F)c2n1` [Compound 82, 4-(4-((1R,5S)-3,8-diazabicyclo[3.2.1]octan-3-yl)-2-(3-(dimethylamino)propoxy)-8-fluoropyrido[4,3-d]pyrimidin-7-yl)naphthalen-2-ol]: the IC50 is 102 nM at KRAS_G12D and cRAF; 1560 nM on KRAS_WT and SOS1; 21.6 nM at KRAS-G12D and SOS1.

Regarding `CCN(CC)CCCOc1nc(N2CC3CCC(C2)N3)c2cc(Cl)c(-c3cc(O)cc4ccccc34)c(F)c2n1` (single isomer, unassigned) [Compound 53a, 4-((S or R)-4-((1R,5S)-3,8-diazabicyclo[3.2.1]octan-3-yl)-6-chloro-2-(3-(diethylamino)propoxy)-8-fluoroquinazolin-7-yl)naphthalen-2-ol], the IC50 is 147 nM at KRAS_G12D and cRAF; 2170 nM on KRAS_WT and SOS1; 59.7 nM on KRAS-G12D and SOS1.

For `CN(C)C12CC(COc3nc(N4CC5CCC(C4)N5)c4cc(Cl)c(-c5cc(O)cc6ccccc56)c(F)c4n3)(C1)C2` (single isomer, unassigned) [Compound 127, 4-((S or R)-4-((1R,5S)-3,8-diazabicyclo[3.2.1]octan-3-yl)-6-chloro-2-((3-(dimethylamino)bicyclo[1.1.1]pentan-1-yl)methoxy)-8-fluoroquinazolin-7-yl)naphthalen-2-ol hydrochloride], the IC50 at KRAS_G12D and cRAF was determined as 251 nM; at KRAS_WT and SOS1, 6390 nM; on KRAS-G12D and SOS1, 87.6 nM.

Turning to `CCc1c(F)ccc2cc(O)cc(-c3c(F)cc4c(N5CC6CCC(C5)N6)nc(OCCCN5C6CCC5COC6)nc4c3F)c12` (single isomer, unassigned) [Compound 215a, 4-((7S or 7R)-2-(3-(3-oxa-8-azabicyclo[3.2.1]octan-8-yl)propoxy)-4-((1R,5S)-3,8-diazabicyclo[3.2.1]octan-3-yl)-6,8-difluoroquinazolin-7-yl)-5-ethyl-6-fluoronaphthalen-2-ol diformate], the concentration for half-maximal inhibition (IC50) on KRAS_G12D and cRAF is 5.44 nM; on KRAS_WT and SOS1 it was 52.4 nM; on KRAS-G12D and SOS1, 11.9 nM.

`Oc1cc(-c2c(Cl)cc3c(N4CC5CCC(C4)N5)nc(OCCCN4C5CCC4COC5)nc3c2F)c2ccccc2c1` (single isomer, unassigned) [Compound 106, (4S or R)-4-(2-(3-(3-oxa-8-azabicyclo[3.2.1]octan-8-yl)propoxy)-4-((1R,5S)-3,8-diazabicyclo[3.2.1]octan-3-yl)-6-chloro-8-fluoroquinazolin-7-yl)naphthalen-2-ol dihydrochloride]: the IC50 at KRAS_G12D and cRAF came out at 158 nM; on KRAS_WT and SOS1 it was 1770 nM; on KRAS-G12D and SOS1, 39.1 nM.

Take `Cn1cnc(Cn2ccc3ccc(CNCc4[nH]c5ccccc5c4[C@H]4NC(=O)c5ccc(O)cc54)cc32)c1` [BI-2852, reference compound]: the 50% inhibitory concentration (IC50) on KRAS_G12D and cRAF stood at 2700 nM; at KRAS_WT and SOS1, 136 nM; on KRAS-G12D and SOS1, 238 nM.

`Oc1cc(-c2c(Cl)cc3c(N4CC5CCC(C4)N5)nc(OCC(F)CN4CCCC4)nc3c2F)c2ccccc2c1` (single isomer, unassigned) [Compound 109b, 4-((S or R)-4-((1R,5S)-3,8-diazabicyclo[3.2.1]octan-3-yl)-6-chloro-8-fluoro-2-((R or S)-2-fluoro-3-(pyrrolidin-1-yl)propoxy)quinazolin-7-yl)naphthalen-2-ol hydrochloride]: the IC50 worked out at 208 nM on KRAS_G12D and cRAF; 5350 nM at KRAS_WT and SOS1; 58.2 nM at KRAS-G12D and SOS1.

For `Oc1cc(-c2c(Cl)cc3c(N4CC5CCC(C4)N5)nc(OCCCN4C5CC6CC4CC(C5)O6)nc3c2F)c2ccccc2c1` (single isomer, unassigned) [Compound 235, 4-((S or R)-2-(3-((1R,3R,5R,7R)-2-oxa-6-azadamantan-6-yl)propoxy)-4-((1R,5S)-3,8-diazabicyclo[3.2.1]octan-3-yl)-6-chloro-8-fluoroquinazolin-7-yl)naphthalen-2-ol formate], the IC50 at KRAS_G12D and cRAF turned out to be 149 nM; at KRAS_WT and SOS1, 1770 nM; at KRAS-G12D and SOS1, 52.4 nM.

For the molecule `C[C@@H](COc1nc(N2CC3CCC(C2)N3)c2cc(Cl)c(-c3cc(O)cc4ccccc34)c(F)c2n1)CN(C)C` (single isomer, unassigned) [Compound 203, 4-((S or R)-4-((1R,5S)-3,8-diazabicyclo[3.2.1]octan-3-yl)-6-chloro-2-((R)-3-(dimethylamino)-2-methylpropoxy)-8-fluoroquinazolin-7-yl)naphthalen-2-ol diformate], the IC50 at KRAS_G12D and cRAF is 33.9 nM; at KRAS_WT and SOS1, 893 nM; at KRAS-G12D and SOS1, 19.8 nM.

Turning to `CN(C)CCCNc1nc(N2C[C@H]3CC[C@@H](C2)N3)c2cc(Cl)c(-c3cc(O)cc4ccccc34)c(F)c2n1` (single isomer, unassigned) [Compound 55a, (S or R) 4-(4-((1R,5S)-3,8-diazabicyclo[3.2.1]octan-3-yl)-6-chloro-2-((3-(dimethylamino)propyl)amino)-8-fluoroquinazolin-7-yl)naphthalen-2-ol], the IC50 at KRAS_G12D and cRAF is 9950 nM; at KRAS_WT and SOS1 it was over 100000 nM; on KRAS-G12D and SOS1 it was 1120 nM.

With `CO[C@H]1C[C@H]2CC[C@@H](C1)N2C[C@@H](C)COc1nc(N2CC3CCC(C2)N3)c2cc(Cl)c(-c3cc(O)cc4ccccc34)c(F)c2n1` (single isomer, unassigned) [Compound 223, 4-((S or R)-4-((1R,5S)-3,8-diazabicyclo[3.2.1]octan-3-yl)-6-chloro-8-fluoro-2-((R)-3-((1R,3R,5S)-3-methoxy-8-azabicyclo[3.2.1]octan-8-yl)-2-methylpropoxy)quinazolin-7-yl)naphthalen-2-ol diformate], the IC50 at KRAS_G12D and cRAF was 15.6 nM; at KRAS_WT and SOS1 it was 1700 nM; on KRAS-G12D and SOS1 it was 17.5 nM.

Consider `CCc1c(F)ccc2cc(O)cc(-c3c(Cl)cc4c(N5CC6CCC(C5)N6)nc(OC[C@H](C)CN5C6CCC5COC6)nc4c3F)c12` (single isomer, unassigned) [Compound 233b, 4-((7R or 7S)-2-((2R)-3-(3-oxa-8-azabicyclo[3.2.1]octan-8-yl)-2-methylpropoxy)-4-((1R,5S)-3,8-diazabicyclo[3.2.1]octan-3-yl)-6-chloro-8-fluoroquinazolin-7-yl)-5-ethyl-6-fluoronaphthalen-2-ol formate], for which the concentration for half-maximal inhibition (IC50) on KRAS_G12D and cRAF amounted to 7.18 nM; at KRAS_WT and SOS1, 227 nM; at KRAS-G12D and SOS1 it was 9.1 nM.

In the case of `CCc1c(F)ccc2cc(O)cc(-c3c(F)cc4c(N5CC6CCC(C5)N6)nc(OC[C@H](C)CN5C6CCC5COC6)nc4c3F)c12` (single isomer, unassigned) [Compound 229a, 4-((7S or 7R)-2-((2R)-3-(3-oxa-8-azabicyclo[3.2.1]octan-8-yl)-2-methylpropoxy)-4-((1R,5S)-3,8-diazabicyclo[3.2.1]octan-3-yl)-6,8-difluoroquinazolin-7-yl)-5-ethyl-6-fluoronaphththalen-2-ol formate], the 50% inhibitory concentration (IC50) at KRAS_G12D and cRAF was found to be 11.8 nM; at KRAS_WT and SOS1, 160 nM; at KRAS-G12D and SOS1, 16.4 nM.

For the molecule `C[C@@H](COc1nc(N2CC3CCC(C2)N3)c2cc(Cl)c(-c3cc(O)cc4ccccc34)c(F)c2n1)CN1C[C@@H](C)O[C@@H](C)C1` (single isomer, unassigned) [Compound 205, 4-((S or R)-4-((1R,5S)-3,8-diazabicyclo[3.2.1]octan-3-yl)-6-chloro-2-((R)-3-((2S,6R)-2,6-dimethylmorpholinyl)-2-methylpropoxy)-8-fluoroquinazolin-7-yl)naphthalenol formate], the IC50 at KRAS_G12D and cRAF was determined as 13 nM; at KRAS_WT and SOS1, 505 nM; on KRAS-G12D and SOS1, 11.6 nM.
